Test results published in US6855348B2, “Insecticidal composition derived from plants” (priority 2000, dated 2005).
Like-named read-outs stand apart in the source and are kept apart here.

Legend:
Dermatophagoides farinae = tested on: Dermatophagoides farinae
Method: (§1) American house dust mite (Dermatophagoides farinae) and European house dust mite (Dermatophagoide pteronyssinus) were maintained at 75±5% RH (relative humidity) at 25±1° C., and were provided a feed mixture of fish meal and multi-vitamins in a ratio of 1 to 1 on a 12.5×10.5×5 cm container.
(§2) The starting concentration is important for the primary screening of bioactive compounds from plant extracts and oils. […] 1 mg of the methanol extracts or oils were suspended with 40 μl of methanol and were transferred to a colorless microtube (2 ml). The microtube was vertically shaken several times to disperse the contents to the wall and cap of the microtube and it was placed in a freeze dryer for 1 hour in order to volatilize the solvent. Twenty-five mites were placed on the prepared microtube, and all treatment groups were transferred to an incubator kept at […]. Active mites only were selected with a fine brush under a microscope. Mortalities were determined with a microscope at 24 hours and 48 hours after treatment. […] All tests were replicated four or more times. The percentage mortality was determined and transformed to arcsine square-root values for analysis of variance (ANOVA). Treatment means were compared and separated by Scheffe's test at the P=0.05 (SAS Institute, 1996). Means (±standard error) of untransformed data are reported. Controls received 40 μl of methanol.

[1] = tested on: Dermatophagoides pteronyssinus
Method: as §1, §2

house dust mites = assay type: in vivo; settings: for acaricidal activity / mortality against two species of house dust mites: 1 mg/tube, 48 hours after treatment; for acaricidal activity: at 0.4 mg and less
Method: All tests were replicated four or more times. […] Means (±standard error) of untransformed data are reported. Controls received 40 μl of methanol.

[2] = tested on: mites inhabiting carpets and chairs; settings: homes, cited from earlier work
[3] = synergic effect test, 0.25 mg/tube of each compound, 24 hr
[4] = 0.5 mg/tube, 48 hr, listed as Allyl isothiocyanate
[5] = 0.5 mg/tube, 48 hr, listed as Butyl isothiocyanate

Row | SMILES | Mortality (Means ± standard error, %) (Dermatophagoides farinae; 0.125 mg/tube, 24 hr) | Mortality (Means ± standard error, %) (Dermatophagoides farinae; 0.125 mg/tube, 48 hr) | Mortality (Means ± standard error, %) (Dermatophagoides farinae; 0.2 mg/tube, 24 hr) | Mortality (Means ± standard error, %) (Dermatophagoides farinae; 0.2 mg/tube, 48 hr) | Mortality (Means ± standard error, %) (Dermatophagoides farinae; 0.25 mg/tube, 24 hr) | Mortality (Means ± standard error, %) (Dermatophagoides farinae; 0.25 mg/tube, 48 hr) | Mortality (Means ± standard error, %) (Dermatophagoides farinae; 0.3 mg/tube, 24 hr) | Mortality (Means ± standard error, %) (Dermatophagoides farinae; 0.3 mg/tube, 48 hr) | Mortality (Means ± standard error, %) (Dermatophagoides farinae; 0.4 mg/tube, 24 hr) [b %] | Mortality (Means ± standard error, %) (Dermatophagoides farinae; 0.4 mg/tube, 48 hr) | Mortality (Means ± standard error, %) (Dermatophagoides farinae; 0.5 mg/tube, 24 hr) | Mortality (Means ± standard error, %) (Dermatophagoides farinae; 0.5 mg/tube, 48 hr) | Mortality (Means ± standard error, %) (Dermatophagoides farinae; 1 mg/tube, 24 hr) | Mortality (Means ± standard error, %) (Dermatophagoides farinae; 1 mg/tube, 48 hr) [a %] | Mortality (Means ± standard error, %) ([1]; 0.125 mg/tube, 24 hr) | Mortality (Means ± standard error, %) ([1]; 0.125 mg/tube, 48 hr) | Mortality (Means ± standard error, %) ([1]; 0.2 mg/tube, 24 hr) | Mortality (Means ± standard error, %) ([1]; 0.2 mg/tube, 48 hr) | Mortality (Means ± standard error, %) ([1]; 0.25 mg/tube, 24 hr) | Mortality (Means ± standard error, %) ([1]; 0.25 mg/tube, 48 hr) | further results
1 | CCN(CC)C(=O)c1cccc(C)c1 [DEET, reference compound] | – | – | – | – | – | – | – | – | – | – | – | – | – | – | – | – | – | – | – | – | Mortality (Means ± standard error, %) (Dermatophagoides farinae; [3]): 96.8%; Mortality (Means ± standard error, %) [1, 3]: 16.8%
2 | C=CCN=C=S [allyl isothiocyanate] | 1.0 ± 1.0 e % | 0 e % | 6.0 ± 1.2 d % | 9.0% | 7.0 ± 3.0 d % | 8.0% | 22.0 ± 2.6 c % | 27.0% | 44.0 ± 2.8 | 46.0% | 90.0 ± 2.6 a % | 97.0% | 100 a % | 100 | 6.0 ± 3.5 d % | 9.0 ± 2.5 c % | 7.0 ± 1.0 cd % | 9.0 ± 1.0 c % | 9.0 ± 1.9 cd % | 10.0 ± 2.6 bc % | acaricidal activity / mortality against two species of house dust mites (house dust mites): 100%; acaricidal activity (house dust mites): no significant acaricidal activity; Mortality (Means ± standard error, %) (Dermatophagoides farinae; [4]): 94%; Mortality (Means ± standard error, %) ([1]; 0.3 mg/tube, 24 hr): 25.0 ± 2.5 bc %; Mortality (Means ± standard error, %) ([1]; 0.3 mg/tube, 48 hr): 32.0 ± 2.8 b %; Mortality (Means ± standard error, %) ([1]; 0.4 mg/tube, 24 hr): 33.0 ± 2.5 b %; Mortality (Means ± standard error, %) ([1]; 0.4 mg/tube, 48 hr): 42.0 ± 4.2 b %; Mortality (Means ± standard error, %) ([1]; 0.5 mg/tube, 24 hr): 92.0 ± 2.6 a %; Mortality (Means ± standard error, %) ([1]; 0.5 mg/tube, 48 hr): 94.0 ± 2.6 a %; Mortality (Means ± standard error, %) [1, 4]: 96%; Mortality (Means ± standard error, %) ([1]; 1 mg/tube, 24 hr): 100 a %; Mortality (Means ± standard error, %) ([1]; 1 mg/tube, 48 hr): 100 a %
3 | CCCCN=C=S [butyl isothiocyanate] | 1.0 ± 1.0 d % | 2.0% | 1.0 ± 1.0 e % | 3.0% | 20.0 ± 1.6 c % | 27.0% | 26.0 ± 2.0 c % | 34.0% | 44.0 ± 2.8 | 48.0% | 84.0 ± 5.2 a % | 94.0% | 99.0 ± 1.0 a % | 100 | 1.0 ± 1.0 d % | 2.0 ± 1.2 d % | 7.0 ± 1.0 cd % | 7.0 ± 1.0 cd % | 21.0 ± 2.5 cd % | 30.0 ± 8.7 bc % | acaricidal activity / mortality against two species of house dust mites (house dust mites): 100%; acaricidal activity (house dust mites): no significant acaricidal activity; Mortality (Means ± standard error, %) (Dermatophagoides farinae; [5]): 97%; Mortality (Means ± standard error, %) ([1]; 0.3 mg/tube, 24 hr): 32.0 ± 1.6 bc %; Mortality (Means ± standard error, %) ([1]; 0.3 mg/tube, 48 hr): 39.0 ± 2.5 bc %; Mortality (Means ± standard error, %) ([1]; 0.4 mg/tube, 24 hr): 39.0 ± 2.5 b %; Mortality (Means ± standard error, %) ([1]; 0.4 mg/tube, 48 hr): 45.0 ± 2.5 b %; Mortality (Means ± standard error, %) ([1]; 0.5 mg/tube, 24 hr): 92.0 ± 2.6 a %; Mortality (Means ± standard error, %) ([1]; 0.5 mg/tube, 48 hr): 96.0 ± 2.3 a %; Mortality (Means ± standard error, %) [1, 5]: 94%; Mortality (Means ± standard error, %) ([1]; 1 mg/tube, 24 hr): 99.0 a^c %; Mortality (Means ± standard error, %) ([1]; 1 mg/tube, 48 hr): 100 a %
4 | OC/C=C/c1ccccc1 [cinnamyl alcohol] | 1.0 ± 1.0d % | 2.0 ± 1.2c % | 7.0 ± 1.0c % | 7.0 ± 1.0c % | 10.0 ± 3.8c % | 10.0 ± 4.1c % | 39.0 ± 2.6b % | 45.0 ± 1.9b % | 58.0 ± 2.6 | 65.0 ± 1.9ab % | 90.0% | 97.0 ± 1.9a % | 99.0 ± 1.0a % | 100 | 1.0 ± 1.0e % | 3.0 ± 1.9d % | 6.0 ± 1.2d % | 10.0 ± 1.2c % | 15.0 ± 1.9d % | 14.0 ± 2.6c % | Mortality (Means ± standard error, %) ([1]; 0.3 mg/tube, 24 hr): 35.0 ± 2.5c %; Mortality (Means ± standard error, %) ([1]; 0.3 mg/tube, 48 hr): 40.0 ± 3.7b %; Mortality (Means ± standard error, %) ([1]; 0.4 mg/tube, 24 hr): 56.0 ± 2.8b %; Mortality (Means ± standard error, %) ([1]; 0.4 mg/tube, 48 hr): 62.0 ± 2.6b %; Mortality (Means ± standard error, %) ([1]; 0.5 mg/tube, 24 hr): 90.0%; Mortality (Means ± standard error, %) ([1]; 0.5 mg/tube, 48 hr): 97.0 ± 1.9a %; Mortality (Means ± standard error, %) ([1]; 1 mg/tube, 24 hr): 99.0 ± 1.0a %; Mortality (Means ± standard error, %) ([1]; 1 mg/tube, 48 hr): 100a %
5 | CCCCOC(=O)c1ccccc1C(=O)OCCCC [dibutyl phtalate, reference compound] | – | – | – | – | – | – | – | – | – | – | – | – | – | – | – | – | – | – | – | – | Mortality (Means ± standard error, %) (Dermatophagoides farinae; [3]): 92.0%; Mortality (Means ± standard error, %) [1, 3]: 95.2%
6 | CCN(CC)c1nc(C)cc(OP(=S)(OC)OC)n1 [pirimiphos-methyl] | – | – | – | – | – | – | – | – | – | – | – | – | – | – | – | – | – | – | – | – | control of mites inhabiting carpets ([2]; carpets): 60%; control of mites inhabiting chairs ([2]; chairs): 50%
7 | O=C/C=C/c1ccccc1 [trans-cinnamaldehyde] | 18.0 ± 2.6d % | 23.0 ± 3.4c % | 19.0 ± 2.5cd % | 29.0 ± 1.9bc % | 21.0 ± 2.5cd % | 30.0 ± 8.7bc % | 32.0 ± 1.6bc % | 39.0 ± 2.5bc % | 41.0 ± 2.5 | 45.0 ± 2.5b % | 94.0% | 96.0 ± 2.3a % | 99.0 a^c % | 100 | 6.0 ± 3.5d % | 9.0 ± 2.5c % | 7.0 ± 1.0cd % | 9.0 ± 1.0c % | 9.0 ± 1.9cd % | 10.0 ± 2.6bc % | Mortality (Means ± standard error, %) ([1]; 0.3 mg/tube, 24 hr): 25.0 ± 2.5bc %; Mortality (Means ± standard error, %) ([1]; 0.3 mg/tube, 48 hr): 32.0 ± 2.8b %; Mortality (Means ± standard error, %) ([1]; 0.4 mg/tube, 24 hr): 33.0 ± 2.5b %; Mortality (Means ± standard error, %) ([1]; 0.4 mg/tube, 48 hr): 42.0 ± 4.2b %; Mortality (Means ± standard error, %) ([1]; 0.5 mg/tube, 24 hr): 84.0%; Mortality (Means ± standard error, %) ([1]; 0.5 mg/tube, 48 hr): 94.0 ± 2.6a %; Mortality (Means ± standard error, %) ([1]; 1 mg/tube, 24 hr): 100a %; Mortality (Means ± standard error, %) ([1]; 1 mg/tube, 48 hr): 100a %
